The values that follow come from ChEMBL document CHEMBL2396647, “The synergic modeling for the binding of fluoroquinolone antibiotics to the hERG potassium channel” (Bioorg Med Chem Lett, 2013).

Structures are written as SMILES.

What all share (type): cell-based
Assay [1] concerns the target T1, Voltage-gated inwardly rectifying potassium channel KCNH2 (Homo sapiens, UniProt Q12809, Y652A). Description: Binding affinity to human ERG Y652A tetrameric mutant expressed in HEK293 cells assessed as inhibition of tail current measured upon repolarization to -40 mV by patch clamp method. A general note: Patch clamp records ionic current or voltage across a cell membrane.

Assay [2] concerns the target T2, Voltage-gated inwardly rectifying potassium channel KCNH2 (Homo sapiens, UniProt Q12809, F656A). Description: Binding affinity to human ERG F656A tandem dimeric mutant expressed in HEK293 cells assessed as inhibition of tail current measured upon repolarization to -120 mV by patch clamp method.
Assay [3] has as its target Voltage-gated inwardly rectifying potassium channel KCNH2 (Homo sapiens, UniProt Q12809). Briefly: Binding affinity to wild type human ERG expressed in HEK293 cells assessed as inhibition of tail current measured upon repolarization to -40 mV by patch clamp method.
Assay [4] addresses Voltage-gated inwardly rectifying potassium channel KCNH2 (Homo sapiens, UniProt Q12809, S624A). Briefly: Binding affinity to human ERG S624A tetrameric mutant expressed in HEK293 cells assessed as inhibition of tail current measured upon repolarization to -40 mV by patch clamp method.
Assay [5] addresses T1, Voltage-gated inwardly rectifying potassium channel KCNH2. Briefly: Binding affinity to human ERG Y652A tandem dimeric mutant expressed in HEK293 cells assessed as inhibition of tail current measured upon repolarization to -40 mV by patch clamp method.
Assay [6] concerns the target T2, Voltage-gated inwardly rectifying potassium channel KCNH2. Briefly: Binding affinity to human ERG F656A tetrameric mutant expressed in HEK293 cells assessed as inhibition of tail current measured upon repolarization to -120 mV by patch clamp method.

T2 sequence (Q12809 whole entry F656A): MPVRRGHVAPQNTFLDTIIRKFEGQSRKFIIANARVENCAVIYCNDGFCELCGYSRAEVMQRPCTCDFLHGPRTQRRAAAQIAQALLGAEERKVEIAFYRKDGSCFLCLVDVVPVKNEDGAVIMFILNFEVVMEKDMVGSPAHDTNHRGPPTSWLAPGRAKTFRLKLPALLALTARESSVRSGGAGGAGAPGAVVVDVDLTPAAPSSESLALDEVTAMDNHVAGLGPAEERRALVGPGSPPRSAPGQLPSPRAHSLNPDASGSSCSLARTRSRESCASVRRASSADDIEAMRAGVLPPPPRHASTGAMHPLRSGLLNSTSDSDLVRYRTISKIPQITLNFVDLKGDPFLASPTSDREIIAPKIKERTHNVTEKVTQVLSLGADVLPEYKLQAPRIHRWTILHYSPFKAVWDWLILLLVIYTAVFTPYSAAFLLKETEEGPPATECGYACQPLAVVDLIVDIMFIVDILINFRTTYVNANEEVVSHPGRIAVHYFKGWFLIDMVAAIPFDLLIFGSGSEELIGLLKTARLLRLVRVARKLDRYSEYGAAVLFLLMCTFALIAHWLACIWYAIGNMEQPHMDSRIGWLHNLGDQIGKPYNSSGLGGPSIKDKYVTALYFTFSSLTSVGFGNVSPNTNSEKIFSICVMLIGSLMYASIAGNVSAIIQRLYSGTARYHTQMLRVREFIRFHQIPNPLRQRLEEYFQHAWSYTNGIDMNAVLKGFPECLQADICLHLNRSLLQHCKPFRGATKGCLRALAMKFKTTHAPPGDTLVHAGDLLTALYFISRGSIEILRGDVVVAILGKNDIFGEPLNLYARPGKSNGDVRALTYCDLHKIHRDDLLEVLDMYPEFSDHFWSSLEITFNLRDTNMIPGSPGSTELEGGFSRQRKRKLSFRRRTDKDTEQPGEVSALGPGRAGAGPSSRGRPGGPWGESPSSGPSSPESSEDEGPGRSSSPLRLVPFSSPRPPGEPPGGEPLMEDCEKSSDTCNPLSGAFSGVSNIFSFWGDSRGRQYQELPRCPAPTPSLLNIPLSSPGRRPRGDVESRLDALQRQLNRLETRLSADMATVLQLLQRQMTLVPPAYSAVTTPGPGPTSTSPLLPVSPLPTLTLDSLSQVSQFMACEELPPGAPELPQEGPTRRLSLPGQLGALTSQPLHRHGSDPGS
T1 sequence (Q12809 whole entry Y652A): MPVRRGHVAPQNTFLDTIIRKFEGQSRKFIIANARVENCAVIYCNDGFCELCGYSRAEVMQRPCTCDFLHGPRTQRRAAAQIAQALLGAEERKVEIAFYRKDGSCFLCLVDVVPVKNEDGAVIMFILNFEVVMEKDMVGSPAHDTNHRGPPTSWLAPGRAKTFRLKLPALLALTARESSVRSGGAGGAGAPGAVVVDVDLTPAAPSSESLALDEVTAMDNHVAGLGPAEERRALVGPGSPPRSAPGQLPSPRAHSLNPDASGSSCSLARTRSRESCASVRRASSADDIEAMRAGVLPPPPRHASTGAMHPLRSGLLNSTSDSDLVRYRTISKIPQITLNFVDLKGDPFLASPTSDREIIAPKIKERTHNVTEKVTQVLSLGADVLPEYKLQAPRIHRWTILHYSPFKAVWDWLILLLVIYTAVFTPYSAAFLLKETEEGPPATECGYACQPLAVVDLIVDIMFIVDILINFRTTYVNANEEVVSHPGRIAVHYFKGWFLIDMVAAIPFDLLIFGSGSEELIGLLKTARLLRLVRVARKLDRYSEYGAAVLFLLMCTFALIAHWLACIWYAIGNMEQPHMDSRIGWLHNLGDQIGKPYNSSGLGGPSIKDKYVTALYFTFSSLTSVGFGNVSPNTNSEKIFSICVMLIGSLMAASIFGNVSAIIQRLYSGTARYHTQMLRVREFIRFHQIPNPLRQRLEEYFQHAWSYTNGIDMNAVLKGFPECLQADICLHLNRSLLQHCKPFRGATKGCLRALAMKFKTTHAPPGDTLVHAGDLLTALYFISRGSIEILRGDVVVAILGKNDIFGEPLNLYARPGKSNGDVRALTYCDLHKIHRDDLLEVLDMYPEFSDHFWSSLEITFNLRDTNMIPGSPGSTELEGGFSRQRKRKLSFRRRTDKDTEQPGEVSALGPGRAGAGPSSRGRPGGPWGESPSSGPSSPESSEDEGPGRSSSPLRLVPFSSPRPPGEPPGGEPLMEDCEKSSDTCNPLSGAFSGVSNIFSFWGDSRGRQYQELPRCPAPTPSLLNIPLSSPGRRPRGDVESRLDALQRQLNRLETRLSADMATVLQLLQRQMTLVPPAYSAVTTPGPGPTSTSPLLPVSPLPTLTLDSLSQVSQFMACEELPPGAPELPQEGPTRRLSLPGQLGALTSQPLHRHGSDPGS
Chain of Voltage-gated inwardly rectifying potassium channel KCNH2 (Homo sapiens, UniProt Q12809) (Q12809 whole entry): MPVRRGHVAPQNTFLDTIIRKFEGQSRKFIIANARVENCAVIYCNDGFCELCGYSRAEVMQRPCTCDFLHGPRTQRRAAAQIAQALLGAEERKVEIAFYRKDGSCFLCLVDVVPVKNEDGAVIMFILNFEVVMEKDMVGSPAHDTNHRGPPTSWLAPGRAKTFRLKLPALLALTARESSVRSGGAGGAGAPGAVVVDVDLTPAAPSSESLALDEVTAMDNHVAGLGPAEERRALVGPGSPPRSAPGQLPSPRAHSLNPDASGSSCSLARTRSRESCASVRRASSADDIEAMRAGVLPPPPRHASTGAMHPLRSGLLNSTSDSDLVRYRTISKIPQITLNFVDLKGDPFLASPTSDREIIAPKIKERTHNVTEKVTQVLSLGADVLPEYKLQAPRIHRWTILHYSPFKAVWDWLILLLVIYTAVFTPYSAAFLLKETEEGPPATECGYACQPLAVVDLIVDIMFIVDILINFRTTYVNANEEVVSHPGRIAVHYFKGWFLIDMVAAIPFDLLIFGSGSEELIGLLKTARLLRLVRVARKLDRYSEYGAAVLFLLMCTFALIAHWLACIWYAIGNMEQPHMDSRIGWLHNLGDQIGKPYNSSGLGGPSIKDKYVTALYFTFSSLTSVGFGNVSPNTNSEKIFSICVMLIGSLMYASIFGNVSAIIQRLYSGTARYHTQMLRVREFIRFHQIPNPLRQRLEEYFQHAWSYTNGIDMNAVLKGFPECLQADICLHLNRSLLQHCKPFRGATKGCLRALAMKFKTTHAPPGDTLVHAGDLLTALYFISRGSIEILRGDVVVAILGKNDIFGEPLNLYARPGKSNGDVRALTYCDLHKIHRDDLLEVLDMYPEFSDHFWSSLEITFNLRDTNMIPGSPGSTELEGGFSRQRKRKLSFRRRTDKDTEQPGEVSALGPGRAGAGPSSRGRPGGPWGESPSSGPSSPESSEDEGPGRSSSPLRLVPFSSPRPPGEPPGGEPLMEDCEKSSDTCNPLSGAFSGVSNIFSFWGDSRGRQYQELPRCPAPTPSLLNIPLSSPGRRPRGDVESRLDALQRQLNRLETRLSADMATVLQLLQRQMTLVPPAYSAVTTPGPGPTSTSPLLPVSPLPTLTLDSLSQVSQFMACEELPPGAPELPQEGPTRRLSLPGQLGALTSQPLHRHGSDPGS
Chain of Voltage-gated inwardly rectifying potassium channel KCNH2 (Homo sapiens, UniProt Q12809, S624A) (Q12809 whole entry S624A): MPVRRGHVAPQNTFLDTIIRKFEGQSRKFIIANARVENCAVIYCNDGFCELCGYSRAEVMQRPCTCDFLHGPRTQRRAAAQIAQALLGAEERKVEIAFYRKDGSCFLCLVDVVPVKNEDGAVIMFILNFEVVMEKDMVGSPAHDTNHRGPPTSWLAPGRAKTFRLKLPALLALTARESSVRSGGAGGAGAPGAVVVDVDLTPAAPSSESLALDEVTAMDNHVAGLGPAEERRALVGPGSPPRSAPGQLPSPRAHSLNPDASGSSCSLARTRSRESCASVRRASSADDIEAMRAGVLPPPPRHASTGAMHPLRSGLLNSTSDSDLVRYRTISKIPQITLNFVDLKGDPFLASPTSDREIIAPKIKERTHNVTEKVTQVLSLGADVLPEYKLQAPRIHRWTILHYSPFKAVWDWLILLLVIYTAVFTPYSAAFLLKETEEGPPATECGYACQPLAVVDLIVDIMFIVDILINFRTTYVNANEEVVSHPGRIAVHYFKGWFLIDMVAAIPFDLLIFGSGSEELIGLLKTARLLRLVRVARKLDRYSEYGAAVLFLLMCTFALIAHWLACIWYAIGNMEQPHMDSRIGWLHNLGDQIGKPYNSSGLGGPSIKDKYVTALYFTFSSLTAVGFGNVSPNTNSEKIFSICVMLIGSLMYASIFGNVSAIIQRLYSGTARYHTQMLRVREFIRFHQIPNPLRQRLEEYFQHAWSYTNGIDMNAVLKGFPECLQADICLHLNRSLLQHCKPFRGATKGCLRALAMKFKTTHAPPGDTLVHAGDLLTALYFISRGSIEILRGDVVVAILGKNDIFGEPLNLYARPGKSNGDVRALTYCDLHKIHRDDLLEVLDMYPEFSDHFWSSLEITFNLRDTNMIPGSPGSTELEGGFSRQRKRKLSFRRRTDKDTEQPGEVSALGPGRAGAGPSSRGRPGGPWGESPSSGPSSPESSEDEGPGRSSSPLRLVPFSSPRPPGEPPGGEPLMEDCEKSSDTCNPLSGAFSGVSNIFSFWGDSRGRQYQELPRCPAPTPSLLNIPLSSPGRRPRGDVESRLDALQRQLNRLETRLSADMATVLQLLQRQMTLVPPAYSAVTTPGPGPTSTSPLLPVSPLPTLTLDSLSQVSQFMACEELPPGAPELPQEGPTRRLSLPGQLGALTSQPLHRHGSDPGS

Take `C[C@@H]1CN(c2c(F)c(N)c3c(=O)c(C(=O)O)cn(C4CC4)c3c2F)C[C@H](C)N1` [SPARFLOXACIN]: the IC50 (commonly the midpoint of a concentration-inhibition curve) in assay [1] was more than 250 µM; in assay [2] it was 33.6 µM; in assay [3], 21.7 µM; in assay [4], 46.9 µM; in assay [5], 128 µM; in assay [6] it was more than 250 µM.
